In PubChem BioAssay (NCI):
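1) Cells in 96-well plates. 2) Compound, 48 h, 5 concentrations. 3) Linear interpolation between surrounding doses. 4) Unreached endpoint = highest concentration. At the TGI there is no net growth.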

Legend:
Experiment in all cases: DTP human tumour cell line panel, 48 h
[1] = tested on: SF-539 CNS
[2] = tested on: 786-0 renal
[3] = tested on: SF-295 CNS
[4] = tested on: HCC-2998 colon
[5] = tested on: SNB-19 CNS
[6] = tested on: HCT-116 colon
[7] = tested on: U251 CNS
[8] = tested on: A549 NSCLC
[9] = tested on: PC-3 prostate
[10] = tested on: HT29 colon
[11] = tested on: HCT-15 colon
[12] = tested on: SW-620 colon
[13] = tested on: MDA-MB-231 breast
[14] = tested on: NCI-H460 lung
[15] = tested on: M14 melanoma
[16] = tested on: BT-549 breast
[17] = tested on: MOLT-4 leukemia
[18] = tested on: SF-268 CNS
[19] = tested on: UO-31 renal
[20] = tested on: HOP-62 NSCLC
[21] = tested on: OVCAR-8 ovarian
[22] = tested on: MCF7 breast
[23] = tested on: SR leukemia
[24] = tested on: SK-MEL-2 melanoma
[25] = tested on: IGROV1 ovarian
[26] = tested on: HL-60(TB) leukemia
[27] = tested on: MALME-3M melanoma
[28] = tested on: SK-OV-3 ovarian
[29] = tested on: UACC-62 melanoma
[30] = tested on: HOP-92 NSCLC
[31] = tested on: SK-MEL-28 melanoma
[32] = tested on: A498 renal
[33] = tested on: NCI/ADR-RES ovarian
[34] = tested on: OVCAR-3 ovarian
[35] = tested on: NCI-H23 lung
[36] = tested on: ACHN renal
[37] = tested on: CAKI-1 renal
[38] = tested on: TK-10 renal
[39] = tested on: MDA-MB-435
[40] = tested on: KM12 colon
[41] = tested on: CCRF-CEM leukemia
[42] = tested on: EKVX NSCLC
[43] = tested on: SNB-75 CNS
[44] = tested on: SK-MEL-5 melanoma
[45] = tested on: COLO 205 colon
[46] = tested on: OVCAR-4 ovarian
[47] = tested on: NCI-H226 lung
[48] = tested on: RXF 393 renal
[49] = tested on: K-562 leukemia
[50] = tested on: NCI-H522 lung
[51] = tested on: HS 578T breast
[52] = tested on: OVCAR-5 ovarian
[53] = tested on: UACC-257 melanoma

Measured: TGI

COc1ccc2nc(-c3ccc(N)cc3)sc2c1
> 100 µM: all assays above
